In patent US20240197695A1, “COMPOUND FOR PREVENTION OR TREATMENT OF KIDNEY DISEASE” (ONCOCROSS CO.,LTD, priority 2021, published 2024):
Marks after values point to notes of the source that are not given here.

Tests used:
Format in all cases: in vivo, mice (C57BL/6)
[1] = Body weights of mice in diabetic nephrosis model
Protocol: (§1) STZ (Sigma-aldrich, S0130, 40 mg/kg b.w., in 0.1 M citrate buffer pH 4.5) was intraperitoneally administered to 9-week-old male mice (C57BL/6) once/1 day for 5 days to perform a first disease induction. After 7 weeks of the first induction, a second induction was performed using the same method as the first induction. For 5 days of an STZ administration period for the first induction, 10% sucrose was administered as drinking water. In addition, after 14 days of the second administration, blood glucose levels were confirmed to confirm the induction rate, and the induced animals were separated into groups. Experimental substances (R)-4-{(R)-1-[7-(3,4,5-trimethoxy-phenyl)-[1,6] naphthyridin-5-yloxy]-ethyl}pyrrolidin-2-one (BI-1002494) and cromolyn (OC-101) were administered orally into the stomach at 10 mL/kg using an administration syringe (sonde) before 16:00 daily for 12 weeks at a frequency of 7 days/week at doses shown in Table 1 below, and dexamethasone was orally administered as a positive control substance.

[2] = Feed intake of mice in diabetic nephrosis model; set-up: Feed intake, Mean: unit not given here
Protocol: as §1

[3] = test system: diabetic nephrosis animal models; test: Blood insulin (Mouse Insulin ELISA KIT) and HOMA-IR; settings: for HOMA-IR, Mean / Insulin, Mean: after observation period, fasted
Protocol: as §1
After the observation period for mice of each group in Example 1 was terminated, all surviving animals were fasted in the same manner as when measuring blood glucose levels, and then anesthetized by inhaling isoflurane, and blood was collected from the abdominal vena cava through laparotomy. After the blood collection was completed, the veins and arteries were cut under anesthesia and exsanguinated. The collected blood was left at room temperature for 30 minutes or more and then centrifuged at 3,000 rpm for 20 minutes. Thereafter, glucose, Blood urea nitrogen (BUN), and creatinine were analyzed using an automated blood biochemistry analyzer (Hitachi 3100, Hitachi Co. Ltd., Japan). Indoxyl sulfate (a substance that was mainly produced in the intestines to cause renal injury, and a substance that caused end-stage renal failure by advancing renal function damage in patients with renal failure during hemodialysis) was analyzed using LC MS/MS. In addition, blood insulin was analyzed according to a method represented by a commercial Mouse Insulin ELISA KIT (#AKRIN-011T, Sibayagi Co. Ltd., Japan).

In the case of `COc1cc(-c2cc3ncccc3c(O[C@H](C)[C@H]3CNC(=O)C3)n2)cc(OC)c1OC` [BI-1002494, (R)-4-{(R)-1-[7-(3,4,5-trimethoxy-phenyl)-[1,6]naphthyridin-5-yloxy]-ethyl}pyrrolidin-2-one], the “Body weight compared to the disease control group” value ([1]; 12.5 mg/kg administered group, after week 5 of administration) is reported as “statistically significantly increased”, the Body weight, Mean ([1]; 12.5 mg/kg/day oral, week 0) is reported as 24 g and the Body weight, Mean ([1]; 12.5 mg/kg/day oral, week 1) is reported as 23.7 g. The Body weight, Mean ([1]; 12.5 mg/kg/day oral, week 2) was 23.8 g, the Body weight, Mean ([1]; 12.5 mg/kg/day oral, week 3) was 24.1 g and the Body weight, Mean ([1]; 12.5 mg/kg/day oral, week 4) was 24.3 g. For the same compound, the “Body weight, Mean” value ([1]; 12.5 mg/kg/day oral, week 5) was 24.2^#, the “Body weight, Mean” value ([1]; 12.5 mg/kg/day oral, week 6) was 24.4^# and the “Body weight, Mean” value ([1]; 12.5 mg/kg/day oral, week 7) was 24.3^#. For the same compound, the “Body weight, Mean” value ([1]; 12.5 mg/kg/day oral, week 8) was 24.2^#, the “Body weight, Mean” value ([1]; 12.5 mg/kg/day oral, week 10) was 23.8^# and the “Body weight compared to the disease control group” value ([1]; 25 mg/kg administered group, after week 8) was “statistically significantly increased”. The Body weight, Mean ([1]; 25 mg/kg/day oral, week 0) was 23.8 g, the Body weight, Mean ([1]; 25 mg/kg/day oral, week 1) was 23.5 g and the Body weight, Mean ([1]; 25 mg/kg/day oral, week 2) was 23.7 g. The Body weight, Mean ([1]; 25 mg/kg/day oral, week 3) was 23.9 g, the Body weight, Mean ([1]; 25 mg/kg/day oral, week 4) was 23.9 g and the Body weight, Mean ([1]; 25 mg/kg/day oral, week 5) was 24 g. For the same compound, the Body weight, Mean ([1]; 25 mg/kg/day oral, week 6) was 23.9 g, the Body weight, Mean ([1]; 25 mg/kg/day oral, week 7) was 24 g and the “Body weight, Mean” value ([1]; 25 mg/kg/day oral, week 8) was 24.0^#. The “Body weight, Mean” value ([1]; 25 mg/kg/day oral, week 10) was 23.7^#, the “Body weight compared to the disease control group” value ([1]; 50 mg/kg administered group, after week 8) was “statistically significantly increased” and the Body weight, Mean ([1]; 50 mg/kg/day oral, week 0) was 23.9 g. For the same compound, the Body weight, Mean ([1]; 50 mg/kg/day oral, week 1) was 23.6 g, the Body weight, Mean ([1]; 50 mg/kg/day oral, week 2) was 23.8 g and the Body weight, Mean ([1]; 50 mg/kg/day oral, week 3) was 23.8 g. It also gave a Body weight, Mean ([1]; 50 mg/kg/day oral, week 4) of 23.8 g, a Body weight, Mean ([1]; 50 mg/kg/day oral, week 5) of 23.9 g and a Body weight, Mean ([1]; 50 mg/kg/day oral, week 6) of 23.9 g. For the same compound, the Body weight, Mean ([1]; 50 mg/kg/day oral, week 7) was 24 g, the “Body weight, Mean” value ([1]; 50 mg/kg/day oral, week 8) was 23.9^# and the “Body weight, Mean” value ([1]; 50 mg/kg/day oral, week 10) was 23.7^#. The “Feed intake compared to the disease control group” value ([2]; 12.5 mg/kg administered group, after week 4 of administration) was “statistically significantly decreased”, the “Feed intake, Mean” value ([2]; 12.5 mg/kg/day oral, week 0) was 6.97 and the “Feed intake, Mean” value ([2]; 12.5 mg/kg/day oral, week 1) was 5.61. For the same compound, the “Feed intake, Mean” value ([2]; 12.5 mg/kg/day oral, week 2) was 6.23, the “Feed intake, Mean” value ([2]; 12.5 mg/kg/day oral, week 3) was 4.58 and the “Feed intake, Mean” value ([2]; 12.5 mg/kg/day oral, week 4) was 5.14^#. For the same compound, the “Feed intake, Mean” value ([2]; 12.5 mg/kg/day oral, week 5) was 4.98, the “Feed intake, Mean” value ([2]; 12.5 mg/kg/day oral, week 6) was 5.31 and the “Feed intake, Mean” value ([2]; 12.5 mg/kg/day oral, week 7) was 5.21. The “Feed intake, Mean” value ([2]; 12.5 mg/kg/day oral, week 8) was 4.26, the “Feed intake, Mean” value ([2]; 12.5 mg/kg/day oral, week 9) was 4.39 and the “Feed intake, Mean” value ([2]; 12.5 mg/kg/day oral, week 10) was 4.64. For the same compound, the “Feed intake compared to the disease control group” value ([2]; 25 mg/kg administered group, after week 6 of administration) was “statistically significantly decreased”, the “Feed intake, Mean” value ([2]; 25 mg/kg/day oral, week 0) was 6.73 and the “Feed intake, Mean” value ([2]; 25 mg/kg/day oral, week 1) was 5.63. The “Feed intake, Mean” value ([2]; 25 mg/kg/day oral, week 2) was 5.59, the “Feed intake, Mean” value ([2]; 25 mg/kg/day oral, week 3) was 5.26 and the “Feed intake, Mean” value ([2]; 25 mg/kg/day oral, week 4) was 4.99. For the same compound, the “Feed intake, Mean” value ([2]; 25 mg/kg/day oral, week 5) was 5.15, the “Feed intake, Mean” value ([2]; 25 mg/kg/day oral, week 6) was 5.51^# and the “Feed intake, Mean” value ([2]; 25 mg/kg/day oral, week 7) was 5.04. For the same compound, the “Feed intake, Mean” value ([2]; 25 mg/kg/day oral, week 8) was 4.95, the “Feed intake, Mean” value ([2]; 25 mg/kg/day oral, week 9) was 4.62 and the “Feed intake, Mean” value ([2]; 25 mg/kg/day oral, week 10) was 4.63. The “Feed intake compared to the disease control group” value ([2]; 50 mg/kg administered group, after week 8 of administration) was “statistically significantly decreased”, the “Feed intake, Mean” value ([2]; 50 mg/kg/day oral, week 0) was 5.98 and the “Feed intake, Mean” value ([2]; 50 mg/kg/day oral, week 1) was 5.74. The “Feed intake, Mean” value ([2]; 50 mg/kg/day oral, week 2) was 4.98, the “Feed intake, Mean” value ([2]; 50 mg/kg/day oral, week 3) was 5.36 and the “Feed intake, Mean” value ([2]; 50 mg/kg/day oral, week 4) was 5.14. The “Feed intake, Mean” value ([2]; 50 mg/kg/day oral, week 5) was 4.89, the “Feed intake, Mean” value ([2]; 50 mg/kg/day oral, week 6) was 5.64 and the “Feed intake, Mean” value ([2]; 50 mg/kg/day oral, week 7) was 5.11. The “Feed intake, Mean” value ([2]; 50 mg/kg/day oral, week 8) was 4.86^#, the “Feed intake, Mean” value ([2]; 50 mg/kg/day oral, week 9) was 4.30 and the “Feed intake, Mean” value ([2]; 50 mg/kg/day oral, week 10) was 4.14. For the same compound, the “HOMA-IR, Mean” value ([3]; 12.5 mg/kg/day oral) was 12.4, the “Insulin, Mean” value ([3]; 12.5 mg/kg/day oral) was 0.7 ng/mL and the “HOMA-IR, Mean” value ([3]; 25 mg/kg/day oral) was 8.7^#. For the same compound, the “Insulin, Mean” value ([3]; 25 mg/kg/day oral) was 0.5^# ng/ml, the “HOMA-IR, Mean” value ([3]; 50 mg/kg/day oral) was 6.9^# and the “Insulin, Mean” value ([3]; 50 mg/kg/day oral) was 0.5 ng/mL. The “HOMA-IR compared with that of the disease control group” value ([3]; 25 and 50 mg/kg administered groups) was “statistically significantly reduced” and the “Insulin resistance (HOMA-IR), summary” value ([3]; after induction of diabetic renal diseases) was “decreased in a dose-dependent manner”.
